Measurements as given in PubChem BioAssay (NCI).
Where “and” joins values, the source holds several entries; their conditions need not be identical. Equal entries are not always repeated.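 Each compound was tested at five concentrations against cells in 96-well plates for 48 hours. GI50: concentration for 50% inhibition of growth. Definition used: TGI = concentration required for complete inhibition of growth.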

Key:
Test in all cases: inhibition of tumour cell growth, NCI panel, 48 h
NCI-H522 lung = test system: NCI-H522 lung
RXF 393 renal = test system: RXF 393 renal
SF-539 CNS = test system: SF-539 CNS
COLO 205 colon = test system: COLO 205 colon
MOLT-4 leukemia = test system: MOLT-4 leukemia
786-0 renal = test system: 786-0 renal
NCI-H226 lung = test system: NCI-H226 lung
HOP-92 NSCLC = test system: HOP-92 NSCLC
MCF7 breast = test system: MCF7 breast
MDA-MB-231 breast = test system: MDA-MB-231 breast
SF-295 CNS = test system: SF-295 CNS

SMILES | TGI (NCI-H522 lung) | TGI (RXF 393 renal) | TGI (SF-539 CNS) | TGI (COLO 205 colon) | TGI (MOLT-4 leukemia) | TGI (786-0 renal) | TGI (NCI-H226 lung) | TGI (HOP-92 NSCLC) | TGI (MCF7 breast) | TGI (MDA-MB-231 breast) | TGI (SF-295 CNS) | GI50 (NCI-H522 lung) | GI50 (HOP-92 NSCLC) | GI50 (RXF 393 renal) | GI50 (SF-539 CNS) | GI50 (MCF7 breast) | GI50 (COLO 205 colon) | GI50 (MOLT-4 leukemia) | GI50 (SF-295 CNS) | GI50 (NCI-H226 lung)
c1ccc(N=c2snc(-c3ccccc3)s2)cc1 | > 100 µM | > 100 µM | > 100 µM | > 100 µM | > 100 µM | > 100 µM | > 100 µM | – | – | – | – | – | – | – | – | – | – | – | – | –
O=C1NC(=S)NC(=O)C1C(c1ccccc1[N+](=O)[O-])C1C(=O)NC(=S)NC1=O | > 100 µM | > 100 µM | – | > 100 µM | > 100 µM | > 100 µM | > 100 µM | > 100 µM | > 100 µM | > 100 µM | > 100 µM | – | – | – | – | – | – | – | – | –
CN1C(=O)CN(NC(=O)C2=C(O)c3ccc(Br)cc3S(=O)(=O)N2)C1=S | > 100 µM | > 100 µM | – | > 100 µM | > 100 µM | > 100 µM | > 100 µM | > 100 µM | > 100 µM | > 100 µM | > 100 µM | – | – | – | – | – | – | – | – | –
C[C@]12CC/C(=N\O)C=C1CC[C@@H]1[C@@H]2CC[C@]2(C)C(=N/O)/C(=C/c3cccnc3)C[C@@H]12 | 45.2 µM | – | 82.8 µM | 61.8 µM | 4 µM | > 100 µM | 18.1 µM | 63.5 µM | 29.2 µM | 56.2 µM | 31.7 µM | – | – | – | – | – | – | – | – | –
COc1cc([C@@H]2c3cc4c(cc3C[C@H]3COC(=O)[C@@H]32)OCO4)cc(OC)c1OC | 0.00689 µM | > 50 µM | 0.00812 µM | 0.028 µM | 0.12 µM | – | 0.891 µM | – | 2.03 µM | – | 0.00833 µM | 0.003 µM and 0.00924 µM | 0.00752 µM | 0.00723 µM and 0.0157 µM | 0.00279 µM and 0.0062 µM | 0.00506 µM | 0.00627 µM and 0.0092 µM | 0.00428 µM | 0.00296 µM | 0.00524 µM
N#CSCc1cccc(Nc2cc(=O)[nH]c(=O)[nH]2)c1 | > 100 µM | > 100 µM | 98.6 µM | > 100 µM | – | > 100 µM | > 100 µM | 85.7 µM | 38.9 µM | > 100 µM | > 100 µM | – | – | – | – | – | – | – | – | –
N#CC(C#N)=C1CCCS(=O)(=O)c2ccccc21 | – | > 100 µM | > 100 µM | > 100 µM | > 100 µM | > 100 µM | > 100 µM | > 100 µM | > 100 µM | > 100 µM | > 100 µM | – | – | – | – | – | – | – | – | –
CCOC(=O)C1CC(O)C(=O)N1C (stereo not drawn) | – | > 100 µM | > 100 µM | > 100 µM | > 100 µM | > 100 µM | > 100 µM | > 100 µM | > 100 µM | > 100 µM | > 100 µM | – | – | – | – | – | – | – | – | –
CC(=O)Nc1ccc(Cl)c(Cl)c1 | > 100 µM | > 100 µM | > 100 µM | > 100 µM | > 100 µM | > 100 µM | > 100 µM | – | – | – | > 100 µM | – | – | – | – | – | – | – | – | –
Cc1cc(O)cc(O)c1N=Nc1ccc([N+](=O)[O-])cc1 | 14.5 µM | 40.5 µM | 49.9 µM | > 100 µM | 17.3 µM | – | – | 8.17 µM | > 100 µM | 47.4 µM | > 100 µM | – | – | – | – | – | – | – | – | –
Cc1cccc(C[C@@]2(SCc3ccccc3)C(C)(C)[C@@H]3CC[C@@]2(C)C3)n1 | 29.1 µM | 30.9 µM | 55.1 µM | 29 µM | 27.3 µM | 35.5 µM | – | 27.6 µM | 26.8 µM | 28.5 µM | 29.1 µM | – | – | – | – | – | – | – | – | –
CC1=C2c3ccccc3N(C(=O)/C=C/C(=O)O)[C@H]2[C@H]2C(=O)OC(=O)[C@H]2C1 | > 10 µM | > 10 µM | > 10 µM | > 10 µM | > 10 µM | – | > 10 µM | – | > 10 µM | > 10 µM | > 10 µM | – | – | – | – | – | – | – | – | –
CC(C)=CC1C(C(=O)O)C1(C)C (stereo not drawn) | > 750 µM | > 750 µM | > 750 µM | > 750 µM | > 750 µM | – | > 750 µM | > 750 µM | > 750 µM | – | > 750 µM | – | – | – | – | – | – | – | – | –
O=C1C(Cl)N(c2ccccc2)C1c1c[nH]c2ccccc12 (stereo not drawn) | > 100 µM | > 100 µM | > 100 µM | > 100 µM | > 100 µM | – | – | > 100 µM | – | – | > 100 µM | – | – | – | – | – | – | – | – | –
Cc1ccc(C(=O)Nc2ccc(CP(=O)(O)O)cc2)cc1NC(=O)c1cccc(NC(=O)Nc2cccc(C(=O)Nc3cc(C(=O)Nc4ccc(CP(=O)(O)O)cc4)ccc3C)c2)c1 | > 100 µM | > 100 µM | > 100 µM | > 100 µM | – | > 100 µM | > 100 µM | – | > 100 µM | > 100 µM | > 100 µM | – | – | – | – | – | – | – | – | –
Cc1cc2cccc(Cl)c2nc1C(=O)c1ccccc1 | > 100 µM | > 100 µM | > 100 µM | > 100 µM | – | – | > 100 µM | – | – | – | 51.9 µM | – | – | – | – | – | – | – | – | –
COC(c1ccc(C(C)(C)C)cc1)(c1ccc(C(C)(C)C)cc1)c1cc(C(O)(c2cc(C(OC)(c3ccc(C(C)(C)C)cc3)c3ccc(C(C)(C)C)cc3)c(C)cc2C)c2cc(C(OC)(c3ccc(C(C)(C)C)cc3)c3ccc(C(C)(C)C)cc3)c(C)cc2C)c(C)cc1C | – | > 100 µM | > 100 µM | > 100 µM | > 100 µM | – | > 100 µM | > 100 µM | > 100 µM | > 100 µM | > 100 µM | – | – | – | – | – | – | – | – | –
Cc1nc2cc(C(F)(F)F)ccc2[nH]c1=O | – | > 100 µM | > 100 µM | > 100 µM | > 100 µM | > 100 µM | > 100 µM | > 100 µM | > 100 µM | > 100 µM | > 100 µM | – | – | – | – | – | – | – | – | –
CC(C)c1c(P(=O)(c2ccccc2)c2ccccc2)n(C)c2ccccc12 | > 100 µM | – | > 100 µM | > 100 µM | > 100 µM | > 100 µM | > 100 µM | > 100 µM | > 100 µM | > 100 µM | > 100 µM | – | – | – | – | – | – | – | – | –
COC(=O)C1CC(C=[N+](C)C)=C(SC)N1 (stereo not drawn) | > 100 µM | > 100 µM | – | > 100 µM | > 100 µM | > 100 µM | – | > 100 µM | > 100 µM | > 100 µM | > 100 µM | – | – | – | – | – | – | – | – | –
COc1cc2c(cc1OC)C(=O)/C(=C/c1cc(C)c(O)c(C)c1)C2 | > 95.9 µM | 0.439 µM | > 100 µM | > 100 µM | > 100 µM | – | > 59.7 µM | > 100 µM | > 100 µM | > 100 µM | – | – | – | – | – | – | – | – | – | –
